Like-named read-outs stand apart in the source and are kept apart here.
How the values were obtained:
ALK = ALK (Homo sapiens, UniProt Q9UM73); assay: ALK kinase assay (Kinase-Glo / AlphaScreen, purified NPM-ALK); type: biochemical; parameters: fused to the complete intracytoplasmic portion of ALK containing the functional tyrosine kinase domain; 6xHis; made in house; host or cells: insect cells; the other entry of the earlier key: NPM1 (P06748, Nucleophosmin)
IGF1R = biological target: T1, IGF1R (Homo sapiens, UniProt P08069); assay: IGF1R kinase assay; type: biochemical
T1 construct: 6×His- or GST-tagged kinase domain fragments of the corresponding RTKs expressed in baculovirus system; host or cells: baculovirus system
T1 sequence (P08069 999-1274 limits assumed): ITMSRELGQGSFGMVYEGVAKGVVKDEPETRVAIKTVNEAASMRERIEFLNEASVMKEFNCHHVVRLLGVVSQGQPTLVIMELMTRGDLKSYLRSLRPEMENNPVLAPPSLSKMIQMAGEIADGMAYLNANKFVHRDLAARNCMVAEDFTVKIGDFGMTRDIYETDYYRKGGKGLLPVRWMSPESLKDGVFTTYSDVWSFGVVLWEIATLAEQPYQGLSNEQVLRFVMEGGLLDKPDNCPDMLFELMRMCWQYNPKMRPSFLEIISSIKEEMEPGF
Procedure, shortened: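 The AlphaScreen PT66 format of the NPM-ALK assay was applied with minor modifications to commercial recombinant His/GST-tagged kinase domains. Compound (0.078125–40 μM) was incubated 30 min at RT with 10 μM ATP and biotinylated poly-GT in Tris pH 7.5/MgCl2/MnCl2/DTT buffer, then beads 60 min. Read at 520–680 nm; IC50 and Ki derived.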

IRK = biological target: T2, IRK (Homo sapiens, UniProt P06213); assay: IRK (insulin receptor kinase) assay; type: biochemical; settings: Table 1; read-out: IRK IC50
T2 construct: 6×His- or GST-tagged kinase domain fragments of the corresponding RTKs expressed in baculovirus system; host or cells: baculovirus system
T2 sequence (P06213 1023-1298 limits assumed): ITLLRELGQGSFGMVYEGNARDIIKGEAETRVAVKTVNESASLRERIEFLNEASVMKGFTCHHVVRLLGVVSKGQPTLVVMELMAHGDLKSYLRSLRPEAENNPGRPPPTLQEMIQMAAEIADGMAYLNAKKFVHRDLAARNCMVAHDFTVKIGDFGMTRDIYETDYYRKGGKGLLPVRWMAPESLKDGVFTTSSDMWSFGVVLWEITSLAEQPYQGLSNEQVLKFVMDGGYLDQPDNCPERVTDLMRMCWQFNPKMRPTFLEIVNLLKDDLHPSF
Method: To determine inhibition of several tyrosine kinases, such as IGF1R, InsR, Alk, TrkA and Jak2, kinase assays are conducted using either Kinase-Glo (Promega) or AlphaScreen (PerkinElmer) kinase assay platforms. The Kinase-Glo Luminescent Kinase Assay is a homogeneous method for measuring kinase activity by determining the amount of ATP remaining after a kinase reaction. The luminescent signal is proportional to the amount of ATP and inversely proportional to the amount of kinase activity. Tyrosine kinase PT66 AlphaScreen Assay is a high-sensitivity homogeneous, anti-phosphotyrosine antibody-mediated luminescent proximity method measuring incorporation of phosphate in synthetic poly(Glu-Tyr) substrate. The kinase preparations used consist of purified recombinant, 6×His- or GST-tagged kinase domain fragments of the corresponding RTKs expressed in baculovirus system.
Compounds with a range of concentrations 40 μM, 20 μM, 10 μM, 5 μM, 2.5 μM, 1.25 μM, 0.625 μM, 0.3125 μM, 0.15625 μM and 0.078125 μM were incubated with NPM-ALK, which was produced in insect cells as a 6×HIS-tagged fusion protein and purified using nickel-charged resin chromatography, for 30 minutes at RT in the presence of 10 μM ATP and 7.0 ng biotinylated poly-GT. A 1:1 mixture of […] and donor beads was then added to the reaction and incubated for an additional 60 minutes at RT. The assay was conducted on a MultiPROBE liquid handling workstation (PerkinElmer) in a 384-well plate format with a total reaction volume of 40 μL per well. Working stocks of all compounds were dissolved in 100% DMSO and serial dilutions of the compounds were performed using kinase buffer (50 mM Tris-HCl (pH 7.5), 5 mM MgCl2, 5 mM MnCl2, 2 mM DTT (added freshly before use), 0.01% Tween-20) containing 5% DMSO. […] Data were collected as optical readings at 520-680 nm on a Fusion™ microplate analyzer (PerkinElmer), and IC50 and Ki values calculated using PRISM3.0 software (GraphPad Software, Inc., San Diego, Calif.). The same assay was also used with minor modifications to assess the IC50 and Ki values for selected compounds against five other tyrosine kinases (IRK, IGF1R, Flt3, Abl, Src), all of which were purchased from commercial vendors. PolyGT-Biotin was bought from CIS Biointernational Cat. #61GT0BLD; ATP—from Sigma Cat. # A7699; sodium orthovanadate—from Sigma Cat. #S-6508; phosphotyrosine (PT66) assay kit from PerkinElmer Cat. #6760602M; automated workstation tips (20 μL): PerkinElmer Cat. #6000657; and OptiPlate-384 (white)—from PerkinElmer Cat. #6007299.

TRKA = TRKA (Homo sapiens, UniProt P04629); assay: TRKA kinase assay; type: biochemical; parameters: 6×His- or GST-tagged kinase domain fragments of the corresponding RTKs expressed in baculovirus system; host or cells: baculovirus system; settings: Table 1; read-out: TRKA IC50
TRKA, sequence (P04629 510-781 limits assumed): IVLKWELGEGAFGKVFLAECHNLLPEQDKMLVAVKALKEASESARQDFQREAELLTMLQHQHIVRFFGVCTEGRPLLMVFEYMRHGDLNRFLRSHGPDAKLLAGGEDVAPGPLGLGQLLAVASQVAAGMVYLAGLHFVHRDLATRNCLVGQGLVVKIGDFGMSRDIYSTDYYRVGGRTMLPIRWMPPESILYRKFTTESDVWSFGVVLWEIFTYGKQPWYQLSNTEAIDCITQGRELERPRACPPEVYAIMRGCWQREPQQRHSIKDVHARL

H929 = assay: Cell line IC50, MM (IGF1R) H929; type: cell-based; settings: Homo sapiens, NCI-H929; Table 2, cell line
WI38 = assay: Cell line IC50, control WI38; type: cell-based; settings: Homo sapiens, WI-38; Table 2, cell line
Karpas299 = assay: Cell proliferation inhibition, ALCL line Karpas299; type: cell-based; settings: Homo sapiens, KARPAS-299; Table 2, cell line; read-out: IC50 ALCL (ALK) Karpas299
Text: The IL-3-dependent lymphoid cell line BaF3 or BaF3 rendered IL-3-independent by engineered expression of NPM-ALK were used in parallel to test each candidate inhibitor. Control wells contained DMSO solvent without test compound. Specific inhibition of ALK signaling is indicated in the assay by impairment of NPM-ALK-expressing BaF3 cell growth without alterations in the growth of parental BaF3. This colorimetric assay of cell proliferation and viability is based upon reduction of the yellow monotetrazolium salt XTT to a water-soluble orange formazan dye, a reaction catalyzed by mitochondrial dehydrogenases in living cells only (Cell Proliferation Kit II, Cat. #1 465 015, Roche Biochemicals). In addition to testing compounds for their ability to impair the growth of BaF3 cells engineered to express NPM-ALK, the NPM-ALK-positive human lymphoma cell line Karpas-299 (Deutsche Sammlung von Mikroorganismen and Zellkulturen GmbH (DSMZ) no. ACC 31), the human BCR-ABL-positive chronic myeloid leukemia cell line K562 (American Type Culture Collection (ATCC) no. CCL-243), and the human T-cell leukemia line Jurkat (DSMZ no. ACC 282) were tested in these assays.
Each compound stock in 100% DMSO was first diluted using 8% DMSO/culture medium to produce a working stock of 250 μM compound. This working stock was then used to perform serial 1:1 dilutions (i.e., 125 μM, 62.5 μM, 31.25 μM, 15.625 μM, 7.8125 μM, and 3.90625 μM) using DMSO-free culture medium. Twenty (20) μL of each of these dilutions was then added to the cells (2×10^4 cells in 80 μL culture medium per 96-well) to obtain the final test compound concentrations (i.e., 25 μM, 12.5 μM, 6.25 μM, 3.125 μM, 1.5625 μM, and 0.78125 μM).
(§1) Cell proliferation inhibition assays were run for compound (II) with the five target NPM-ALK-dependent ALCL cell lines (Karpas 299, SuDHL-1, JB6, SupM2, UConn) and 12 unrelated cell lines (HEK293, CHO-K1, MCF7, HepG2, H292, H520, H1581, H596, H522, CHA-GO-K1, UMC-11, SK-MES1). […] The pronounced target cell-killing effect is also observed (molecular mechanisms to be determined).

UConn = assay: Cell proliferation inhibition, ALCL line UConn; type: cell-based; settings: Table 2, cell line; read-out: IC50 ALCL (ALK) Uconn
Text: as §1

JB6 = assay: Cell proliferation inhibition, ALCL line JB6; type: cell-based; settings: Table 2, cell line, read-out: IC50 ALCL (ALK) JB6
Text: as §1

[1] = Plasma Protein Binding (Human), equilibrium dialysis; type: in vitro ADME; settings: 1.0E−05 M
[2] = Table 2, read-out: Enzymatic ALK IC50
[3] = Table 2, read-out: Enzymatic IGF1R IC50

ALK, sequence (Q9UM73 with tags, fused parts or gaps): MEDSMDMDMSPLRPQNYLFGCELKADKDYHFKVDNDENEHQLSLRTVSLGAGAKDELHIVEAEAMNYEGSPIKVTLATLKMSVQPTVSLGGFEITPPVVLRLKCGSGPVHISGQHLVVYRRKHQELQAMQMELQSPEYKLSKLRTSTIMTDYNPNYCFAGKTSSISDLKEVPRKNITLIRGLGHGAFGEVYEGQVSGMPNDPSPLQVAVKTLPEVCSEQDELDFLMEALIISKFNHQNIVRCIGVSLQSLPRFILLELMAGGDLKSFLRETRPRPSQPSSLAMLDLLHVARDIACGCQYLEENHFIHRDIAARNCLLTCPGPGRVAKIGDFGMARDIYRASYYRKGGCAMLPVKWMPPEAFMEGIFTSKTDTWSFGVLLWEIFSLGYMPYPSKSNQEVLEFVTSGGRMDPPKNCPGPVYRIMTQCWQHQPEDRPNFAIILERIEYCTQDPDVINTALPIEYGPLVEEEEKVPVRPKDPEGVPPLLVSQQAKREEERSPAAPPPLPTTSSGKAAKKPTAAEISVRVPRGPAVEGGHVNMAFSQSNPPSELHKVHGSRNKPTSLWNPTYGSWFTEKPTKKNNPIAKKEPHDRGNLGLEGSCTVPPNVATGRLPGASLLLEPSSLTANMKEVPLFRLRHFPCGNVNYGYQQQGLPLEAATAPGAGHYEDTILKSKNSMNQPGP

**Q.** For `Cc1ccc(F)cc1C[C@H](C)Nc1cc[nH]c(=O)c1-c1nc2cc3c(cc2[nH]1)C(=O)N(CCN1CCCC1)C3` [drawing 303], which IC50 (ALK; Table 1, read-out: ALK IC50) is on record?
**A.** < 0.01 µM

**Q.** And the IC50 (IGF1R; Table 1, read-out: IGF1R IC50)?
**A.** 0.1 to 0.25 µM

**Q.** What about the IC50 (IRK) of the same compound?
**A.** 0.1 to 0.25 µM

**Q.** And the IC50 (TRKA)?
**A.** < 0.01 µM

**Q.** Which IC50 (ALK; [2]) does the source give for `Cc1ccc(F)cc1C[C@H](C)Nc1cc[nH]c(=O)c1-c1nc2c(C)c3c(cc2[nH]1)CN(CCN1CCCC1)C3=O` [drawing 351] here?
**A.** < 0.01 µM

**Q.** What about the IC50 (IGF1R; [3]) of the same compound?
**A.** 0.1 to 0.25 µM

**Q.** What about the IC50 (H929) of the same compound?
**A.** 0.25 to 1 µM

**Q.** What about the IC50 (WI38) of the same compound?
**A.** > 1 µM

**Q.** And the IC50 (Karpas299)?
**A.** < 0.01 µM

**Q.** What about the IC50 (UConn) of the same compound?
**A.** 0.01 to 0.1 µM

**Q.** What about the IC50 (JB6) of the same compound?
**A.** < 0.01 µM

**Q.** Which “% Protein Bound, Mean” value ([1]; equilibrium dialysis) does the source give for `CC(=O)CC(c1ccccc1)c1c(O)c2ccccc2oc1=O` (stereo not shown) [Warfarin] here?
**A.** 99.2%

**Q.** What about the “% Protein Bound, 1st/2nd” value ([1]; individual data) of the same compound?
**A.** 99.2%

**Q.** For `C[C@@H](Cc1cc(F)ccc1Br)Nc1cc[nH]c(=O)c1-c1nc2cc3c(cc2[nH]1)CN(CCN1CCCC1)C3=O` [drawing 359], which IC50 (ALK; [2]) is on record?
**A.** 0.01 to 0.1 µM

**Q.** And the IC50 (IGF1R; [3])?
**A.** 0.25 to 1 µM

**Q.** What about the IC50 (H929) of the same compound?
**A.** 0.25 to 1 µM

**Q.** And the IC50 (WI38)?
**A.** > 1 µM

**Q.** What about the IC50 (Karpas299) of the same compound?
**A.** 0.01 to 0.1 µM

**Q.** What about the IC50 (UConn) of the same compound?
**A.** 0.1 to 0.25 µM

**Q.** What about the IC50 (JB6) of the same compound?
**A.** 0.01 to 0.1 µM

**Q.** Which results are given for `Cc1ccc(F)cc1C[C@H](C)Nc1cc[nH]c(=O)c1-c1nc2cc3c(cc2[nH]1)CN(CCN(C)C)C3=O` [drawing 316]?
**A.** IC50 (ALK; Table 1, read-out: ALK IC50): < 0.01 µM; IC50 (IGF1R; Table 1, read-out: IGF1R IC50): 0.1 to 0.25 µM; IC50 (IRK): 0.1 to 0.25 µM; IC50 (TRKA): < 0.01 µM

**Q.** Which IC50 (ALK; [2]) does the source give for `C[C@@H](Cc1cc(F)cc(F)c1F)Nc1cc[nH]c(=O)c1-c1nc2cc3c(cc2[nH]1)CN(CCN(C)C)C3=O` [drawing 356] here?
**A.** < 0.01 µM

**Q.** What about the IC50 (IGF1R; [3]) of the same compound?
**A.** 0.1 to 0.25 µM

**Q.** And the IC50 (H929)?
**A.** 0.25 to 1 µM

**Q.** What about the IC50 (WI38) of the same compound?
**A.** > 1 µM

**Q.** And the IC50 (Karpas299)?
**A.** 0.01 to 0.1 µM

**Q.** And the IC50 (UConn)?
**A.** 0.01 to 0.1 µM

**Q.** What about the IC50 (JB6) of the same compound?
**A.** 0.01 to 0.1 µM

**Q.** For `Cc1ccc(F)cc1C[C@H](C)Nc1cc[nH]c(=O)c1-c1nc2cc3c(cc2[nH]1)CN(CCN1CCC[C@H]1C)C3=O` [drawing 354], which IC50 (ALK; [2]) is on record?
**A.** 0.01 to 0.1 µM

**Q.** What about the IC50 (IGF1R; [3]) of the same compound?
**A.** > 1 µM

**Q.** And the IC50 (H929)?
**A.** 0.25 to 1 µM

**Q.** What about the IC50 (WI38) of the same compound?
**A.** > 1 µM

**Q.** And the IC50 (Karpas299)?
**A.** 0.01 to 0.1 µM

**Q.** And the IC50 (UConn)?
**A.** 0.01 to 0.1 µM

**Q.** And the IC50 (JB6)?
**A.** 0.01 to 0.1 µM

**Q.** Which IC50 (ALK; [2]) does the source give for `CNCCN1Cc2cc3[nH]c(-c4c(N[C@@H](C)Cc5cc(F)ccc5C)cc[nH]c4=O)nc3cc2C1=O` [drawing 355] here?
**A.** < 0.01 µM

**Q.** And the IC50 (IGF1R; [3])?
**A.** 0.01 to 0.1 µM

**Q.** What about the IC50 (H929) of the same compound?
**A.** 0.25 to 1 µM

**Q.** What about the IC50 (WI38) of the same compound?
**A.** > 1 µM

**Q.** What about the IC50 (Karpas299) of the same compound?
**A.** 0.01 to 0.1 µM

**Q.** And the IC50 (UConn)?
**A.** 0.01 to 0.1 µM

**Q.** What about the IC50 (JB6) of the same compound?
**A.** < 0.01 µM

**Q.** Which results are given for `Cc1c(F)cccc1C[C@H](C)Nc1cc[nH]c(=O)c1-c1nc2cc3c(cc2[nH]1)C(=O)N(CCN1CCCC1)C3`?
**A.** IC50 (ALK; Table 1, read-out: ALK IC50): 0.01 to 0.1 µM; IC50 (IGF1R; Table 1, read-out: IGF1R IC50): 0.25 to 1 µM; IC50 (IRK): 0.1 to 0.25 µM; IC50 (TRKA): < 0.01 µM
